Data taken from patent US20250304644A1, “PEPTIDES TRIPLE AGONISTS OF GIP, GLP-1 AND GLP-2” (BAINAN BIOTECH APS, priority 2021, published 2025).
Where a SMILES comes first, the peptide text is derived from it. [ ]: non-standard residue; d: D form. The star is where a group is joined. Decanoyl = CCCCCCCCCC(=O)*; Aib = CC(C)(N)C(=O)O

Tests used:
Assay type in all cases: cell-based
human GLP-2R = target: T1, human GLP-2R (Homo sapiens, UniProt O95838); experiment: cAMP assay (HitHunter) in transiently transfected COS-7 cells expressing human GLP-2R; settings: for Emax: COS-7, normalized to highest concentration of the endogenous ligand, read-out: Efficacy GLP-2R (Emax)
T1 construct: host or cells: COS-7
T1 sequence (O95838 1-553): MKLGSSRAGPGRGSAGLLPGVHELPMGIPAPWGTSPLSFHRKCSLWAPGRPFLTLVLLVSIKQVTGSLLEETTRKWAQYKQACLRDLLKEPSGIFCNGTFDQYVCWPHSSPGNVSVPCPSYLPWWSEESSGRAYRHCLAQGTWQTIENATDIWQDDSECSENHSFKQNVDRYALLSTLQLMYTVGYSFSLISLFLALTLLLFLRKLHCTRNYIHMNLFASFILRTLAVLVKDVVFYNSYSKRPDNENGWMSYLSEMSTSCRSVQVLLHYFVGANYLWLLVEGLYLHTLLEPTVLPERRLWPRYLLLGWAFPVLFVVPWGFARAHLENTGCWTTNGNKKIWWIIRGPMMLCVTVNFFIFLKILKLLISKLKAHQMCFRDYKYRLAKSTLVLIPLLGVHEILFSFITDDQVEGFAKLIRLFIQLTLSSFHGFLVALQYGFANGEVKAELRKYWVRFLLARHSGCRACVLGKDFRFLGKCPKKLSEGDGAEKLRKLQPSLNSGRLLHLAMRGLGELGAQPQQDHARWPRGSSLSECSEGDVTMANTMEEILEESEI
Procedure: (§1) The next day the assay was initiated by washing with HEPES buffered saline (HBS) and followed by an incubation step with assay buffer (HBS added 1 mM isobutyl-1-methylxanthine (IBMX)) for 30 min at 37° C. The ligands were then added and incubated for an additional 30 min at 37° C. After ligand incubation, the HitHunter® CAMP assay (Eurofins DiscoverX, Fremont, […] USA) was carried out according to the manufacturer's instructions. […] The potencies (EC50 values) were determined by nonlinear regression using GraphPad Prism 9 (San Diego, California, USA). Sigmoid curves were fitted logistically. The efficacies (Emax values) were determined by normalization to the highest concentration applied of the endogenous ligand for each receptor.

human GLP-1R = target: T2, human GLP-1R (Homo sapiens, UniProt P43220); experiment: cAMP assay (HitHunter) in transiently transfected COS-7 cells expressing human GLP-1R; settings: for Emax: COS-7, normalized to highest concentration of the endogenous ligand, read-out: Efficacy GLP-1R (Emax); for EC50: cAMP, COS-7 cells, human GLP-1R, read-out: EC50 (nM) GLP-1R
T2 construct: host or cells: COS-7
Procedure: as §1

human GIPR = target: T3, human GIPR (Homo sapiens, UniProt P48546); experiment: cAMP assay (HitHunter) in transiently transfected COS-7 cells expressing human GIPR; settings: for Emax: COS-7, normalized to highest concentration of the endogenous ligand, read-out: Efficacy GIPR (Emax); for EC50: cAMP, COS-7 cells, human GIPR
T3 construct: host or cells: COS-7
T3 sequence (P48546 22-466): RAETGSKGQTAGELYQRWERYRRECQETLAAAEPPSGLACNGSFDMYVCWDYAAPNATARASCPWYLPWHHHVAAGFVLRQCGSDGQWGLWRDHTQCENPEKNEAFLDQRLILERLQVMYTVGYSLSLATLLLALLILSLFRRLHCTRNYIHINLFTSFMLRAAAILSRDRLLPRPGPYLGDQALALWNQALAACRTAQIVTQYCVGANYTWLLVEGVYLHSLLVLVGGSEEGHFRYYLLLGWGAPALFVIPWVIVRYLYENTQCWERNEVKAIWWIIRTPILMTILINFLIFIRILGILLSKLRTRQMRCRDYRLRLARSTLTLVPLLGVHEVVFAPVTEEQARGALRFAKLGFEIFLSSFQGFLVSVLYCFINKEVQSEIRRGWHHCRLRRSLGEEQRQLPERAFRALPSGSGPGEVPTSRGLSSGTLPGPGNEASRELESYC
Procedure: as §1

T2 sequence (P43220 24-463): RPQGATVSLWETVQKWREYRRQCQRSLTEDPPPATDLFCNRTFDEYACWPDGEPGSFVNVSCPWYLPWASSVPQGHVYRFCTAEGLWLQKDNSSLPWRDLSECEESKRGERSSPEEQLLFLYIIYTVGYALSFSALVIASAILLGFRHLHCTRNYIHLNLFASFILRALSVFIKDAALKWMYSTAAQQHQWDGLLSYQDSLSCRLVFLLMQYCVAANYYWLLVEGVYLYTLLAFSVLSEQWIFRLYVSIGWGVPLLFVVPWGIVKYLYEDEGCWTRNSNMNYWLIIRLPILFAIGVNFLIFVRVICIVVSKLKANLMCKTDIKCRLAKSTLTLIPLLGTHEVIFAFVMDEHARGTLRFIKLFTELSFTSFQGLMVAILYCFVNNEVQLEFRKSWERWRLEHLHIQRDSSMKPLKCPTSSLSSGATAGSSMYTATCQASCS

| Emax (human GLP-2R) [%] | Emax (human GLP-1R) [%] | Emax (human GIPR) [%] | EC50 (human GLP-1R) [nM] | EC50 (human GIPR) [nM] | EC50 (human GLP-2R; cAMP, COS-7 cells, human GLP-2R, read-out: EC50 (nM) GLP-2R) [nM] | Compound |
| --- | --- | --- | --- | --- | --- | --- |
| 99 | 96 | 97 |  |  |  | CCCCCCCCCC(=O)NCCCC[C@H](NC(=O)[C@@H](NC(=O)[C@@H](NC(=O)[C@H](CCCCN)NC(=O)[C@@H](NC(=O)[C@H](CCC(N)=O)NC(=O)[C@@H](NC(=O)[C@H](CC(C)C)NC(=O)[C@H](Cc1c[nH]c2ccccc12)NC(=O)[C@H](CC(N)=O)NC(=O)[C@@H](NC(=O)[C@H](Cc1ccccc1)NC(=O)[C@H](CC(=O)O)NC(=O)[C@H](CCCNC(=N)N)NC(=O)[C@H](C)NC(=O)[C@H](C)NC(=O)[C@H](CC(C)C)NC(=O)[C@H](CC(N)=O)NC(=O)[C@H](CC(=O)O)NC(=O)[C@H](CC(C)C)NC(=O)[C@@H](NC(=O)[C@@H](NC(=O)[C@H](CO)NC(=O)[C@H](Cc1ccc(O)cc1)NC(=O)[C@H](CC(=O)O)NC(=O)[C@H](CO)NC(=O)[C@@H](NC(=O)[C@H](Cc1ccccc1)NC(=O)[C@@H](NC(=O)CNC(=O)[C@H](CC(=O)O)NC(=O)C(C)(C)NC(=O)[C@@H](N)Cc1c[nH]cn1)[C@@H](C)O)[C@@H](C)CC)[C@@H](C)O)[C@@H](C)CC)[C@@H](C)CC)[C@@H](C)CC)[C@@H](C)O)[C@@H](C)CC)[C@@H](C)O)C(N)=O (single isomer, unassigned) [Compound 6] |
| 101 | 94 | 80 | 1.78 | 0.631 |  | CCCCCCCCCC(=O)NCCCC[C@H](NC(=O)[C@@H](NC(=O)[C@@H](NC(=O)[C@H](CCCCN)NC(=O)[C@@H](NC(=O)[C@H](CCC(N)=O)NC(=O)[C@@H](NC(=O)[C@H](CC(C)C)NC(=O)[C@H](Cc1c[nH]c2ccccc12)NC(=O)[C@H](CC(N)=O)NC(=O)[C@@H](NC(=O)[C@H](Cc1ccccc1)NC(=O)[C@H](CC(=O)O)NC(=O)[C@H](CCCNC(=N)N)NC(=O)[C@H](C)NC(=O)[C@H](C)NC(=O)[C@H](CC(C)C)NC(=O)[C@H](CC(N)=O)NC(=O)[C@H](CC(=O)O)NC(=O)[C@H](CC(C)C)NC(=O)[C@@H](NC(=O)[C@@H](NC(=O)[C@H](C)NC(=O)[C@H](Cc1ccc(O)cc1)NC(=O)[C@H](CC(=O)O)NC(=O)[C@H](CO)NC(=O)[C@@H](NC(=O)[C@H](Cc1ccccc1)NC(=O)[C@@H](NC(=O)CNC(=O)[C@H](CC(=O)O)NC(=O)C(C)(C)NC(=O)[C@@H](N)Cc1c[nH]cn1)[C@@H](C)O)[C@@H](C)CC)[C@@H](C)O)[C@@H](C)CC)[C@@H](C)CC)[C@@H](C)CC)[C@@H](C)O)[C@@H](C)CC)[C@@H](C)O)C(=O)O [Compound 3] (H-H[Aib]DGTFISDYATILDNLAARDFINWLIQTKITK(Decanoyl)-OH; N-terminus assumed) |
| 92 | 82 | 102 | 25.1 | 1.12 |  | CCCCCCCCCC(=O)NCCCC[C@H](NC(=O)[C@@H](NC(=O)[C@@H](NC(=O)[C@H](CCCCN)NC(=O)[C@@H](NC(=O)[C@H](CCC(N)=O)NC(=O)[C@@H](NC(=O)[C@H](CC(C)C)NC(=O)[C@H](Cc1c[nH]c2ccccc12)NC(=O)[C@H](CC(N)=O)NC(=O)[C@@H](NC(=O)[C@H](Cc1ccccc1)NC(=O)[C@H](CC(=O)O)NC(=O)[C@H](CCCNC(=N)N)NC(=O)[C@H](C)NC(=O)[C@H](C)NC(=O)[C@H](CC(C)C)NC(=O)[C@H](CC(C)C)NC(=O)[C@H](CC(=O)O)NC(=O)[C@H](CC(C)C)NC(=O)[C@@H](NC(=O)[C@@H](NC(=O)[C@H](CO)NC(=O)[C@H](Cc1ccc(O)cc1)NC(=O)[C@H](CC(=O)O)NC(=O)[C@H](CO)NC(=O)[C@@H](NC(=O)[C@H](Cc1ccccc1)NC(=O)[C@@H](NC(=O)CNC(=O)[C@H](CC(=O)O)NC(=O)C(C)(C)NC(=O)[C@@H](N)Cc1c[nH]cn1)[C@@H](C)O)[C@@H](C)CC)[C@@H](C)O)[C@@H](C)CC)[C@@H](C)CC)[C@@H](C)CC)[C@@H](C)O)[C@@H](C)CC)[C@@H](C)O)C(N)=O [Compound 4] (H-H[Aib]DGTFISDYSTILDLLAARDFINWLIQTKITK(Decanoyl)-NH2) |
| 110 | 105 | 111 | 1.78 | 0.158 | 2 | CCCCCCCCCC(=O)NCCCC[C@H](NC(=O)[C@@H](NC(=O)[C@@H](NC(=O)[C@H](CCCCN)NC(=O)[C@@H](NC(=O)[C@H](CCC(N)=O)NC(=O)[C@@H](NC(=O)[C@H](CC(C)C)NC(=O)[C@H](Cc1c[nH]c2ccccc12)NC(=O)[C@H](CC(N)=O)NC(=O)[C@@H](NC(=O)[C@H](Cc1ccccc1)NC(=O)[C@H](CC(=O)O)NC(=O)[C@H](CCCNC(=N)N)NC(=O)[C@H](C)NC(=O)[C@H](C)NC(=O)[C@H](CC(C)C)NC(=O)[C@H](C)NC(=O)[C@H](CC(=O)O)NC(=O)[C@H](CC(C)C)NC(=O)[C@@H](NC(=O)[C@@H](NC(=O)[C@H](CO)NC(=O)[C@H](Cc1ccc(O)cc1)NC(=O)[C@H](CC(=O)O)NC(=O)[C@H](CO)NC(=O)[C@@H](NC(=O)[C@H](Cc1ccccc1)NC(=O)[C@@H](NC(=O)CNC(=O)[C@H](CC(=O)O)NC(=O)C(C)(C)NC(=O)[C@@H](N)Cc1c[nH]cn1)[C@@H](C)O)[C@@H](C)CC)[C@@H](C)O)[C@@H](C)CC)[C@@H](C)CC)[C@@H](C)CC)[C@@H](C)O)[C@@H](C)CC)[C@@H](C)O)C(N)=O [Compound 5] (H-H[Aib]DGTFISDYSTILDALAARDFINWLIQTKITK(Decanoyl)-NH2) |
|  | 90 | 98 |  | 0.794 |  | CCCCCCCCCC(=O)NCCCC[C@H](NC(=O)[C@@H](NC(=O)[C@@H](NC(=O)[C@H](CCCCN)NC(=O)[C@@H](NC(=O)[C@H](CCC(N)=O)NC(=O)[C@@H](NC(=O)[C@H](CC(C)C)NC(=O)[C@H](Cc1c[nH]c2ccccc12)NC(=O)[C@H](CC(N)=O)NC(=O)[C@@H](NC(=O)[C@H](Cc1ccccc1)NC(=O)[C@H](CC(=O)O)NC(=O)[C@H](CCCNC(=N)N)NC(=O)[C@H](C)NC(=O)[C@H](C)NC(=O)[C@@H](NC(=O)[C@H](CC(N)=O)NC(=O)[C@H](CC(=O)O)NC(=O)[C@H](CC(C)C)NC(=O)[C@@H](NC(=O)[C@@H](NC(=O)[C@H](CO)NC(=O)[C@H](Cc1ccc(O)cc1)NC(=O)[C@H](CC(=O)O)NC(=O)[C@H](CO)NC(=O)[C@@H](NC(=O)[C@H](Cc1ccccc1)NC(=O)[C@@H](NC(=O)CNC(=O)[C@H](CC(=O)O)NC(=O)C(C)(C)NC(=O)[C@@H](N)Cc1c[nH]cn1)[C@@H](C)O)[C@@H](C)CC)[C@@H](C)O)[C@@H](C)CC)[C@@H](C)CC)[C@@H](C)CC)[C@@H](C)CC)[C@@H](C)O)[C@@H](C)CC)[C@@H](C)O)C(N)=O [Compound 15] (H-H[Aib]DGTFISDYSTILDNIAARDFINWLIQTKITK(Decanoyl)-NH2; N-terminus assumed) |
